Columns and labels:
Experiment in all cases: relative viability (nuclei count vs DMSO), 5 days (fraction); higher = more cells survive
[1] = compound: COc1cccc2cc(-c3nc([C@H]4CC[C@H](C(=O)O)CC4)n4ncnc(N)c34)[nH]c12 [OSI-027] + CC(C)C[C@H](NC(=O)[C@H](Cc1ccccc1)NC(=O)c1cnccn1)B(O)O [Bortezomib] (partner 0.002 µM)
Summary of the method: (§1)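 The day after seeding in 1536-well plates, lung cancer cell lines were treated by pin tool with a single drug, or with a fixed anchor-drug dose together with five library-drug doses (not always all listed) in √10 steps. After 5 days, a combined fix-and-stain solution (final 0.05% Triton X-100, 1% formaldehyde, 1 ug/ml Hoechst) was added. Nuclei counted on 4× images gave relative viability as treated counts over vehicle counts, reported as the median of duplicate plates.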

[2] = compound: CCCS(=O)(=O)Nc1ccc(F)c(C(=O)c2c[nH]c3ncc(-c4ccc(Cl)cc4)cc23)c1F [Vemurafenib] + COc1cccc2cc(-c3nc([C@H]4CC[C@H](C(=O)O)CC4)n4ncnc(N)c34)[nH]c12 [OSI-027] (partner 0.5 µM)
Summary of the method: as §1

[3] = compound: CCCS(=O)(=O)Nc1ccc(F)c(C(=O)c2c[nH]c3ncc(-c4ccc(Cl)cc4)cc23)c1F [Vemurafenib] + Cc1nc(Nc2ncc(C(=O)Nc3c(C)cccc3Cl)s2)cc(N2CCN(CCO)CC2)n1 [Dasatinib] (partner 0.075 µM)
Summary of the method: as §1

[4] = compound: CCCS(=O)(=O)Nc1ccc(F)c(C(=O)c2c[nH]c3ncc(-c4ccc(Cl)cc4)cc23)c1F [Vemurafenib] + COc1cc2c(Oc3ccc(NC(=O)C4(C(=O)Nc5ccc(F)cc5)CC4)cc3F)ccnc2cc1OCCCN1CCOCC1 [Foretinib] (partner 0.25 µM)
Summary of the method: as §1

UMC-11 was tested, and the relative viability ([1]; first compound 0.01 µM) was 0.565, the relative viability ([1]; first compound 0.03162 µM) was 0.646 and the relative viability ([1]; first compound 0.1 µM) was 0.696. The relative viability ([1]; first compound 0.3162 µM) was 0.668, the relative viability ([1]; first compound 1 µM) was 0.503 and the relative viability ([2]; first compound 0.03162 µM) was 0.541. It also gave a relative viability ([2]; first compound 0.1 µM) of 0.519, a relative viability ([2]; first compound 0.3162 µM) of 0.411 and a relative viability ([2]; first compound 1 µM) of 0.44. The relative viability ([3]; first compound 0.03162 µM) was 0.465, the relative viability ([3]; first compound 0.1 µM) was 0.459 and the relative viability ([3]; first compound 0.3162 µM) was 0.455. It also gave a relative viability ([3]; first compound 1 µM) of 0.537, a relative viability ([4]; first compound 0.03162 µM) of 1.02 and a relative viability ([4]; first compound 0.1 µM) of 1. The relative viability ([4]; first compound 0.3162 µM) was 1.15 and the relative viability ([4]; first compound 1 µM) was 0.923.

Reference: the supplement of paper PMC10307832
